Test results published in paper PMC3598007, “Interactions of zebrafish peptide YYb with the neuropeptide Y-family receptors Y4, Y7, Y8a, and Y8b” (Frontiers in Neuroscience, 2013).
“Also recorded” adds a separate entry of the source. No end group written: not given here.

How the values were obtained:
Y4 = conditions: PP, PYY and NPY compared, ref Lundell et al., 1995, 2002; cited from earlier work
From the text: Functional and evolutionary studies in mammals have shown that their Y4 receptor has evolved a partnership with pancreatic polypeptide (PP). It should be stressed that PYYb is not the teleost fish ortholog of PP, instead the latter is a tandem duplicate of PYY that probably took place early in the tetrapod lineage. […] Thus, the PP-Y4 preference seems to have evolved in mammals (Lundell et al., [1995], [2002]). One aim of the present study was to investigate ...

Y8b (Yb) = experiment: Competition binding with 125I-pPYY, zebrafish Y8b receptor (CHO-cells); conditions: stably expressed in CHO-cells, competition with 125I-pPYY, 25 mM HEPES pH 7.4, 2.5 mM CaCl2, 1 mM MgCl2, bacitracin, 2 h incubation, mean ± SEM, n = 4 (zfNPY), 3 (zfPYYa), 4 (zfPYYb)
From the text: (§1) The zebrafish receptors have previously been cloned and expressed in cell lines by our laboratory. The zebrafish Y8a and Y8b receptors were inserted in a pTEJ-8 vector and stably expressed in CHO-cells (Ringvall et al., [1997]; Berglund et al., [2000]). Y7 has been inserted in a pCEP4 vector and semi-stably expressed in HEK 293-EBNA cells (Fredriksson et al., [2004]). The zebrafish Y4 receptor coding region was inserted in a pTEJ-8 vector (Starback et al., [1999]) and transient expressed in HEK cells. The cell-lines were grown according to the recommendations of the manufacturer. Ninety percent of the confluent cells were harvested and mixed with 100 μl 25 mM HEPES buffer (pH 7.4 and 2.5 mM CaCl2 and 1 mM MgCl2) and stored at −80°C.
(§2) Thawed aliquots of transfected cells were mixed with 1 ml 25 mM HEPES buffer (pH 7.4, 2.5 mM CaCl2, 1 mM MgCl2 and 0.2 g/l bacitracin). The samples were homogenized and another 1 ml buffer was added. ^125I-pPYY was used as radioligand in all experiments, radioligand, and unlabeled ligands (serial concentrations of zfNPY, zfPYYa, and zfPYYb respectively) and cells were mixed at the proportion 2:1:1 in 100 μl reactions followed by 2 h incubation. […] The radioactivity was measured using a Wallac 1450 Betaplate counter and the results were analyzed using Prism 4.0 software package (GraphPad, San Diego, CA, USA). […]

Y8a (Yc) = experiment: Competition binding with 125I-pPYY, zebrafish Y8a receptor (CHO-cells)
From the text: as §1, §2

Y4(Ya) = experiment: Competition binding with 125I-pPYY, zebrafish Y4 receptor (HEK cells); conditions: transiently expressed in HEK cells, competition with 125I-pPYY, 25 mM HEPES pH 7.4, 2.5 mM CaCl2, 1 mM MgCl2, bacitracin, 2 h incubation, mean ± SEM, n = 3 (zfNPY), 3 (zfPYYa), 3 (zfPYYb)
From the text: as §1, §2

Y7 = experiment: Competition binding with 125I-pPYY, zebrafish Y7 receptor (HEK 293-EBNA cells); conditions: for Ki: zebrafish Y7, semi-stably expressed in HEK 293-EBNA cells, competition with 125I-pPYY, 25 mM HEPES pH 7.4, 2.5 mM CaCl2, 1 mM MgCl2, bacitracin, 2 h incubation, mean ± SEM, n = 5 (zfNPY), 3 (zfPYYa), 5 (zfPYYb)
From the text: as §1
Thawed aliquots of transfected cells were mixed with 1 ml 25 mM HEPES buffer (pH 7.4, 2.5 mM CaCl2, 1 mM MgCl2 and 0.2 g/l bacitracin). The samples were homogenized and another 1 ml buffer was added. ^125I-pPYY was used as radioligand in all experiments, radioligand, and unlabeled ligands (serial concentrations of zfNPY, zfPYYa, and zfPYYb respectively) and cells were mixed at the proportion 2:1:1 in 100 μl reactions followed by 2 h incubation. The zebrafish NPY (zfNPY) and PYYa (zfPYYa) were synthesized at Eli Lilly and Company. The zebrafish PYYb (zfPYYb) was supplied in a crude form by GL Biochem Shanghai and purified as previously described (Fredriksson et al., [2006]). The incubation was terminated by rapid filtration through GF/C filters pre-soaked in 0.3% polyethyleneimin, using a TOMTEC cell harvester (Orange, CT, USA). The filters were washed with 50 mM Tris-HCl (pH 7.4) and dried at 50°C for 30 min. Filters were treated with MeltiLex A melt on scintillator sheets (Perkin Elmer, Boston, MA, USA). The radioactivity was measured using a Wallac 1450 Betaplate counter and the results were analyzed using Prism 4.0 software package (GraphPad, San Diego, CA, USA). The pKi values were compared to each other using One-Way ANOVA followed by Tukey-Kramer Multiple Comparison Test (GraphPad, San Diego, CA, USA).
The zebrafish receptors were expressed in mammalian cells and the membrane fraction was used for binding experiments. Competition binding experiments were performed using the three endogenous ligands NPY, PYYa and PYYb in competition with iodinated porcine PYY. The mature 36 amino acid PYYb peptide has fourteen differences compared to NPY and seven when compared with PYYa (see Figure 1). PYYa differs from NPY at nine positions. Thus, PYYb has clearly changed more than PYYa after duplication of their common ancestral gene.

Y2 [1] = conditions: mammals; PYY3-36 formed by dipeptidyl peptidase IV cleavage; ref Mentlein et al., 1993; cited from earlier work
From the text: Studies of how NPY affects appetite have been conducted in several fish species (Narnaware et al., [2000]; Narnaware and Peter, [2001]) and the NPY system seems to influence food intake, although the orexigenic receptor subtypes have not been identified in the fish species studied. The receptors that in mammals are involved in inhibition of appetite have been known in zebrafish for several years and there have been some studies investigating how PYY can inhibit feeding. In mammals it seems like the main inhibitory action on appetite is performed by PYY3-36. This peptide is the result of cleava ...

Y2 [2] = conditions: zebrafish Y2, ref Fredriksson et al., 2006, cited from earlier work
From the text: The neuropeptide Y (NPY) system influences numerous physiological functions including feeding behavior, endocrine regulation, and cardiovascular regulation. In jawed vertebrates it consists of 3–4 peptides and 4–7 receptors. Teleost fishes have unique duplicates of NPY and PYY as well as the Y8 receptor. In the zebrafish, the NPY system consists of the peptides NPYa, PYYa, and PYYb (NPYb appears to have been lost) and at least seven NPY receptors: Y1, Y2, Y2-2, Y4, Y7, Y8a, and Y8b. Previously PYYb binding has been reported for Y2 and Y2-2. To search for peptide-receptor preferences, we have i ... || The main objective of this study was to examine the affinity of PYYb for the Y4, Y7, Y8a, and Y8b receptors, and to compare it to the other two endogenous peptides, NPY and PYYa. […] The zebrafish Y7 receptor is 50% identical to zebrafish Y2 and PYYa has low affinity for both of these. This observation will be interesting to correlate with the physiological roles of the peptides and receptors in z ... || (+ 1 further places)

In the case of “chicken PP: chicken pancreatic polypeptide (GPSQPTYPGDDAPVEDLIRFYNDLQQYLNVVTRHRY; ends and bridges not checked; UniProt P68248 26-61, looked up)”, the “affinity for chicken Y4” value (Y4) is given as “equal affinities”.

For “zfNPY: endogenous zebrafish neuropeptide Y, synthesized at Eli Lilly and Company”, the Ki (Y8b (Yb)) was 0.13 ± 0.04 nM, the Ki (Y8a (Yc); zebrafish Y8a (Yc), stably expressed in CHO-cells, competition with 125I-pPYY, 25 mM HEPES pH 7.4, 2.5 mM CaCl2, 1 mM MgCl2, bacitracin, 2 h incubation, mean ± SEM, n = 7 (zfNPY), 6 (zfPYYa), 4 (zfPYYb)) was 0.21 ± 0.07 nM and the Ki (Y4(Ya)) was 0.033 ± 0.005 nM. The Ki (Y7) was 0.57 ± 0.16 nM.

In the case of PYY3-36, the “selectivity for Y2 over the other receptor subtypes” value (Y2 [1]) is given as “selectivity for Y2 over the other receptor subtypes”.

For “zfPYYa: endogenous zebrafish PYYa, synthesized at Eli Lilly and Company”, the Ki (Y8b (Yb)) is given as 0.25 ± 0.12 nM, the “affinity for Y8a compared with the other two peptides” value (Y8a (Yc); zebrafish Y8a, PYYa vs NPY and PYYb) is given as “slightly lower than the other two peptides” and the “affinity for Y2” value (Y2 [2]; previously reported) is given as 3 nM. The “preference of Y2 / affinity for Y2” value (Y2 [2]) was “low affinity”, the Ki (Y4(Ya)) was 0.034 ± 0.009 nM and the Ki (Y7) was 1.82 nM. For the same substance, the “fold lower affinity for Y7 than NPY and PYYb” value (Y7; zebrafish Y7, PYYa vs NPY and PYYb) was 3 fold and the “affinity for Y7 compared with NPY and PYYb” value (Y7; zebrafish Y7, pKi compared by One-Way ANOVA, Tukey-Kramer) was “significantly lower affinity; also recorded: low affinity”.
